Results taken from patent publication US4383113A, “Agricultural sulfonamides” (E. I. Du Pont de Nemours and Company, priority 1981, dated 1983).

Assays:
sorghum = test: Test A pre-emergence; assay type: in vivo; design: key: 0 = no effect, 10 = maximum effect; letter = response symbol; conditions: 0.4 kg/ha
How it was run: (§1)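 Seeds and tubers were treated preemergence in a growth medium with compound in a nonphytotoxic solvent, against untreated controls; emerged plants such as two-leaf barnyardgrass and five-leaf cotton were sprayed postemergence, against solvent-sprayed controls. After sixteen days in a greenhouse, response was rated visually from 0 to 10.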

rice = test: Test A pre-emergence; assay type: in vivo; design: key: 0 = no effect, 10 = maximum effect; letter = response symbol; conditions: 0.4 kg/ha
How it was run: as §1

wheat = test: Test A pre-emergence; assay type: in vivo; design: key: 0 = no effect, 10 = maximum effect; letter = response symbol; conditions: 0.4 kg/ha
How it was run: as §1

crabgrass = test: Test A pre-emergence; assay type: in vivo, Digitaria spp.; design: key: 0 = no effect, 10 = maximum effect; letter = response symbol; conditions: 0.4 kg/ha
How it was run: as §1

wild oats = test: Test A pre-emergence; assay type: in vivo, Avena fatua; design: key: 0 = no effect, 10 = maximum effect; letter = response symbol; conditions: 0.4 kg/ha
How it was run: as §1

cocklebur = test: Test A pre-emergence; assay type: in vivo, Xanthium spp.; design: key: 0 = no effect, 10 = maximum effect; letter = response symbol; conditions: 0.4 kg/ha
How it was run: as §1

nutsedge = test: Test A pre-emergence; assay type: in vivo, Cyperus rotundus; conditions: 0.4 kg/ha
Description: The activity of these compounds was discovered in a number of greenhouse and field tests. The ratings are based on a numerical scale extending from 0=no effect, to 10=maximum effect. The accompanying descriptive symbols have the following meanings:
Seeds of crabgrass (Digitaria spp.), barnyardgrass (Echinochloa crusgalli), wild oats (Avena fatua), cassia (Cassia tora), morningglory (Ipomoea spp.), cocklebur (Xanthium spp.), sorghum, corn, soybean, rice, wheat and nutsedge tubers (Cyperus rotundus) were planted in a growth medium and treated preemergence with a nonphytotoxic solvent solution of the compounds of Table XII. Other batches of seeds and tubers for all of the foregoing weed and crop plants were planted at the same time as controls. The control plantings were untreated; i.e., neither any compound nor any solvent was applied. At the same time, cotton having five leaves (including cotyledonary ones), bush beans with the third trifoliate leaf expanding, crabgrass with two leaves, barnyardgrass with two leaves, wild oats with two leaves, cassia with three leaves (including cotyledonary ones), morningglory with four leaves (including the cotyledonary ones), cocklebur with four leaves (including the cotyledonary ones), sorghum with four leaves, corn with four leaves, soybean with two cotyledonary leaves, rice with three leaves, wheat with one leaf, and nutsedge with three-five leaves were sprayed with a nonphytotoxic solvent solution of the compounds of Table XII. Other groups of all the same weed and crop plants were sprayed with the same nonphytotoxic solvent so as to provide control plants. Preemergence and postemergence treated plants and controls were maintained in a greenhouse for sixteen days, then all treated plants were compared with their respective controls and rated visually for response to treatment.

cassia = test: Test A pre-emergence; assay type: in vivo, Cassia tora; design: key: 0 = no effect, 10 = maximum effect; letter = response symbol; conditions: 0.4 kg/ha
How it was run: as §1

barnyardgrass = test: Test A pre-emergence; assay type: in vivo, Echinochloa crusgalli; design: key: 0 = no effect, 10 = maximum effect; letter = response symbol; conditions: 0.4 kg/ha
How it was run: as §1

morningglory = test: Test A pre-emergence; assay type: in vivo, Ipomoea spp.; design: key: 0 = no effect, 10 = maximum effect; letter = response symbol; conditions: 0.4 kg/ha
How it was run: as §1

soybean = test: Test A pre-emergence; assay type: in vivo; design: key: 0 = no effect, 10 = maximum effect; letter = response symbol; conditions: 0.4 kg/ha
How it was run: as §1

corn = test: Test A pre-emergence; assay type: in vivo; design: key: 0 = no effect, 10 = maximum effect; letter = response symbol; conditions: 0.4 kg/ha
How it was run: as §1

purple nutsedge [1] = test: Test F soil incorporated; assay type: in vivo, Cyperus rotundus
Description: (§2) Purple nutsedge tubers (Cyperus rotundus) were planted about 2 cm deep in Fallsington silt loam contained in plastic pots 10 cm in diameter. Five tubers were put in each pot. Compounds of this invention were sprayed dissolved in a non-phytotoxic solvent at a volume rate of 560 l/ha. in four different methods of treatment, i.e., soil surface spray, tuber/soil spray, soil incorporated and post-emergence. For the soil surface spray, the compounds were sprayed on the firmed soil surface immediately after planting. For the tuber/soil spray, the compounds were sprayed on the exposed tubers and subtending soil before the untreated covering soil was added. Soil incorporation treatments were mixed in the covering soil. Post-emergence treatments were sprayed on the nutsedge foliage and surrounding soil surface after the nutsedge had emerged and had reached the height of about 12 cm.
(§3) Immediately after spraying the surface spray, tuber/soil spray and soil incorporated treatments were misted with about 0.3 cm of water over a 90 minute period and then placed in the greenhouse. Post-emergence treatments were placed directly into the greenhouse and watered carefully so that treatments would not be washed from the foliage.

purple nutsedge [2] = test: Test F post-emergence; assay type: in vivo, Cyperus rotundus
Description: as §2, §3

purple nutsedge [3] = test: Test F soil surface spray; assay type: in vivo, Cyperus rotundus
Description: as §2, §3

purple nutsedge [4] = test: Test F tuber/soil spray; assay type: in vivo, Cyperus rotundus
Description: as §2, §3

| Structure (SMILES) | response rating (sorghum) | response rating (rice) | response rating (wheat) | response rating (crabgrass) | response rating (wild oats) | response rating (cocklebur) | response rating (nutsedge) | response rating (cassia) | response rating (barnyardgrass) | response rating (morningglory) | response rating (soybean) | other results |
| --- | --- | --- | --- | --- | --- | --- | --- | --- | --- | --- | --- | --- |
| COc1cc(OC)nc(NC(=O)NS(=O)(=O)c2ccccc2C(=O)OC2CCCCC2)n1 [drawing 498] | 8G | 9H | 3G | 0 | 5G | 8G | 5G | 3G | 9H | 8G |  |  |
| COc1nc(C)nc(NC(=O)NS(=O)(=O)c2ccccc2C(=O)OC2CCCC2)n1 [drawing 512] |  | 9H | 4G | 6G | 4G | 9G | 9G | 8G | 9H | 9G | 9H |  |
| COc1nc(C)nc(NC(=O)NS(=O)(=O)c2ccccc2C(=O)OC2CCCCCCC2)n1 [drawing 523] |  | 9H | 5G | 5G | 7G | 9G | 7G | 8G | 9H |  | 9H |  |
| CCCC(OC(=O)c1ccccc1S(=O)(=O)NC(=O)Nc1nc(C)nc(OC)n1)C(C)C (centres unmarked) [drawing 525] |  | 9H | 3G | 0 | 5G | 8G | 5G | 8G | 9H | 9G | 9H | response rating (corn): 8G |
| COC(=O)c1ccccc1S(=O)(=O)NC(=O)Nc1nnc(C)c(C)n1 [drawing 597] |  |  |  |  |  |  |  |  |  |  |  | response rating after 4 weeks (purple nutsedge [1]; .032 kg/ha): 3G; response rating after 4 weeks (purple nutsedge [2]; .032 kg/ha): 0; response rating after 4 weeks (purple nutsedge [2]; .125 kg/ha): 9C; response rating after 4 weeks (purple nutsedge [2]; .5 kg/ha): 10C; response rating after 4 weeks (purple nutsedge [3]; .032 kg/ha): 2G; response rating after 4 weeks (purple nutsedge [4]; .032 kg/ha): 2G |
| COc1nc(NC(=O)NS(=O)(=O)c2ccccc2C(=O)OC2CCCCC2)nc(OC)n1 [drawing 499] | 8G | 5G | 2G | 0 | 2G | 9C | 0 | 2C | 9H | 9G | 2C |  |
| COC(=O)c1cc(Cl)ccc1S(=O)(=O)NC(=O)Nc1nc(OC)nc(OC)n1 [drawing 603] |  |  |  |  |  |  |  |  |  |  |  | response rating after 4 weeks (purple nutsedge [1]; .008 kg/ha): 5G; response rating after 4 weeks (purple nutsedge [1]; .032 kg/ha): 7G; response rating after 4 weeks (purple nutsedge [1]; .125 kg/ha): 9G; response rating after 4 weeks (purple nutsedge [2]; .008 kg/ha): 3G; response rating after 4 weeks (purple nutsedge [2]; .125 kg/ha): 10C; response rating after 4 weeks (purple nutsedge [3]; .008 kg/ha): 3G; response rating after 4 weeks (purple nutsedge [3]; .032 kg/ha): 7G; response rating after 4 weeks (purple nutsedge [3]; .125 kg/ha): 9G; response rating after 4 weeks (purple nutsedge [4]; .008 kg/ha): 4G; response rating after 4 weeks (purple nutsedge [4]; .032 kg/ha): 7G; response rating after 4 weeks (purple nutsedge [4]; .125 kg/ha): 9G |
| COC(=O)c1ccccc1S(=O)(=O)NC(=O)Nc1ncccn1 [drawing 596] |  |  |  |  |  |  |  |  |  |  |  | response rating after 4 weeks (purple nutsedge [1]; .032 kg/ha): 0; response rating after 4 weeks (purple nutsedge [2]; .032 kg/ha): 0; response rating after 4 weeks (purple nutsedge [2]; .125 kg/ha): 9C; response rating after 4 weeks (purple nutsedge [3]; .032 kg/ha): 0; response rating after 4 weeks (purple nutsedge [4]; .032 kg/ha): 2G |
| COc1nc(C)nc(NC(=O)NS(=O)(=O)c2ccccc2C(=O)OCCCl)n1 [drawing 493] |  | 9H |  |  | 8H | 9G | 9G |  |  | 9C | 9H |  |
| CCCCCCCCCCOC(=O)c1ccccc1S(=O)(=O)NC(=O)Nc1nc(OC)cc(OC)n1 [drawing 494] | 8G | 8G | 2G | 0 | 6G | 9G | 5G | 5G |  | 5G | 3G |  |
| COC(=O)c1ccccc1S(=O)(=O)NC(=O)Nc1nc(OC)nc(OC)n1 [drawing 483] | 9G |  | 9G | 9H | 9G | 9G | 9G | 9G | 9H | 9G | 9H | response rating (corn): 9G |
| COc1nc(NC(=O)NS(=O)(=O)c2ccccc2C(=O)OC(C)C)nc(OC)n1 [drawing 600] |  |  |  |  |  |  |  |  |  |  |  | response rating after 4 weeks (purple nutsedge [1]; .004 kg/ha): 8G; response rating after 4 weeks (purple nutsedge [1]; .008 kg/ha): 8G; response rating after 4 weeks (purple nutsedge [2]; .004 kg/ha): 8C; response rating after 4 weeks (purple nutsedge [2]; .008 kg/ha): 9C; response rating after 4 weeks (purple nutsedge [2]; .016 kg/ha): 9C; response rating after 4 weeks (purple nutsedge [2]; .032 kg/ha): 10C; response rating after 4 weeks (purple nutsedge [3]; .004 kg/ha): 8G; response rating after 4 weeks (purple nutsedge [3]; .008 kg/ha): 8G; response rating after 4 weeks (purple nutsedge [4]; .004 kg/ha): 7G; response rating after 4 weeks (purple nutsedge [4]; .008 kg/ha): 8G |
| COC(=O)c1ccccc1S(=O)(=O)NC(=O)N(C)c1nc(C)cc(C)n1 [drawing 486] | 4G | 8H | 4H | 3G | 0 |  | 0 | 0 | 2G | 0 | 0 | response rating (corn): 3G |
| COc1nc(C)nc(NC(=O)NS(=O)(=O)c2ccccc2C(=O)OCc2ccc(Cl)cc2)n1 [drawing 527] |  | 9H | 0 |  | 4G | 8G | 9G | 8G |  | 9G | 7H |  |
| CCCCCCCCCCOC(=O)c1ccccc1S(=O)(=O)NC(=O)Nc1nc(C)nc(OC)n1 [drawing 497] | 3G | 0 | 0 | 2G | 0 |  | 2G |  | 0 | 0 | 0 | response rating (corn): 4G |
| COC(=O)c1cc(Cl)ccc1S(=O)(=O)NC(=O)Nc1nc(C)cc(OC)n1 [drawing 604] |  |  |  |  |  |  |  |  |  |  |  | response rating after 4 weeks (purple nutsedge [1]; .008 kg/ha): 7G; response rating after 4 weeks (purple nutsedge [2]; .032 kg/ha): 9C; response rating after 4 weeks (purple nutsedge [2]; .125 kg/ha): 9C; response rating after 4 weeks (purple nutsedge [3]; .032 kg/ha): 9G; response rating after 4 weeks (purple nutsedge [4]; .008 kg/ha): 7G |
| CCCCCCCCCCOC(=O)c1ccccc1S(=O)(=O)NC(=O)Nc1nc(OC)nc(OC)n1 [drawing 496] | 2H | 0 | 0 | 0 | 0 |  | 0 |  | 0 | 4G | 1C | response rating (corn): 2G |
| CCCCCCCCCCOC(=O)c1ccccc1S(=O)(=O)NC(=O)Nc1nc(C)cc(OC)n1 [drawing 495] |  | 9H | 8G | 0 |  | 9G | 7G | 7G |  | 8G |  |  |
